{"source": "patent US4826994A", "about": "“Production of substituted 1,3,4,9-tetrahydropyrano(3,4-B)indole-1-acetic acids” (American Home Products Corporation, priority 1988, dated 1989)", "key": {"[1]": {"test": "Preventative Adjuvant Edema (acute anti-inflammatory effect in rats)", "assay_type": "in vivo, Male Sprague Dawley rats", "design": "inhibition in vivo: dose or concentration left out as unconfirmed", "details": "for Preventative Adjuvant Edema, percent inhibition / inhibition in vivo at 25 mg/kg: 25 mg/kg; for Preventative Adjuvant Edema, percent inhibition / inhibition in vivo / inhibition in vivo at 25 mg/kg: p.o.; for ED50 / inhibition in vivo / inhibition in vivo at 25 mg/kg: Rattus norvegicus, po, 72 h; for ED50: value in parentheses; for inhibition in vivo / inhibition in vivo at 25 mg/kg: read-out: Preventative Adjuvant Edema, percent inhibition", "experimental": "This test is a primary screen for anti-inflammatory drugs.\nMale Sprague Dawley rats (180-200 g) are used. The animals have free access to water but food is withdrawn 18 hours before testing.\nDrug Preparations and Administration:\nFreund's complete adjuvant is prepared by suspending 5 mg of killed and dried Mycobacterium butyricum (Difco) in 1 mL mineral oil. The test compounds are dissolved, of suspended in 0.5% Tween 80 in distilled water according to their solubility. For primary screening all drugs are administered by gastric lavage at the arbitrary dosage of 25 mg/kg, p.o. in a volume of 0.5 mL/100 g body weight to groups of 10 animals.\nThe method is essentially that described by Wax et al, J. Pharmacol. Exp. Ther., 192, 166-171 (1975). Groups of rats are injected intradermally in the left hind paw with 0.1 mL of Freund's complete adjuvant. The test compound or vehicle is administered immediately before the adjuvant, 24 hours and 48 hours after the adjuvant (days 0, 1 and 2). The injected hind paw volume is measured before the injection of adjuvant and 24 hrs. after the last drug administration (day 3) by means of a plethysmometer (Buxco Electronics Inc.). The difference between the hind paw volume on day 0 and day 3 represents the edema volume. Etodolac (25 mg/kg, p.o.) is included as a positive control.\nThe mean edema volume (expressed as mL±SEM) is calculated for each group and the percentage protection conferred by the drug is calculated: [formula] where c is the mean edema volume for the vehicle-treated (0.5% Tween 80 in distilled water) controls and t is the mean edema volume for the drug treated group."}, "[2]": {"test": "Drug Effects on Phenylbenzoquinone-induced Writhing in Mice", "assay_type": "in vivo, Male Swiss albino mice", "details": "Mus musculus, po; for ED50: value in parentheses, read-out: Phenylquinone Writhing in Mice, ED50", "experimental": "A further test used to determine the utility of the compounds of the present invention is designated: Drug Effects on Phenylbenzoquinone-induced Writhing in Mice\nThe objective of this test is to determine the ability of test drugs to inhibit the nociceptive (pain) response of mice injected with a chemical irritant. This test is a primary screen for both peripheral and centrally acting analgesic drugs.\nMale Swiss albino mice (15-25 g). The animals are fasted for 18 hours prior to use but have free access to water.\n(§1) Drug Preparation and Administration:\nDrugs are dissolved or suspended according to their solubility in 0.5% Tween 80 in distilled water. They are administered by gastric gavage in a volume of 5 mL/kg. For primary screening all drugs are administered at the arbitrary dosage of 25 mg/kg, p.o. to a group of 10 mice.\nA modification of the method of Siegmund et al, Proc. Soc. Exp. Biol. Med., 95, 729-731 (1957) is used. Groups of 5 mice are dosed with the test compound or vehicle control. Sixty minutes later the animals are injected i.p. with 0.3 mL/20 g body weight of a 0.02% solution of phenylbenzoquinone (PBQ; 2-phenyl-1,4-benzoquinone) and placed in individual observation boxes. The number of writhing or abdominal squirming movements made by each mouse during the following 15 min. period is counted. The experiment is repeated with another group of 5 mice and the mean number of writhes per mouse for a group of 10 mice is calculated.\nDrug treated and vehicle-treated control groups are compared and the percentage protection conferred by the drug is calculated: [formula] where c=mean number of writhes in the control group where t=mean number of writhes in the test drug group"}, "[3]": {"test": "Randall Selitto Test in the Rat (pain threshold in inflamed paw)", "assay_type": "in vivo, Male Sprague Dawley rats", "details": "rats; for ED50: Rattus norvegicus, po, 1 hour after dosing, value in parentheses, read-out: Randall Selitto Test in the Rat, ED50 (dose which causes analgesia in 50% of the animals)", "text": "An additional test used to determine the utility of the compounds of the present invention is designated: Randall Selitto Test in the Rat\nThe objective of this test is to assess the potency of peripheral and central acting drugs in inhibiting the reaction of rats to painful stimulation applied to an inflamed paw.\nMale Sprague Dawley rats (180-200 g) are used. The animals are fasted overnight prior to drug administration.\nas §1\nFreund's Complete Adjuvant (FCA) is prepared by suspending 5 mg killed and dried mycobacterium butyricum (Difco) in 1 mL mineral oil. The test compounds are dissolved or suspended in 0.5% Tween 80 in distilled water according to their solubility. They are administered by gastric gavage in a volume of 0.5 mL/100 g body weight to groups of 10 animals.\nTen rats are used per group. The method is essentially that described by Randall and Selitto, Arch. Int. Pharmacodyn. 111, 409 (1957) and the apparatus which is used to apply pressure to the paw (Analgesi-meter for the rat paw, Ugo Basile, Comeria, Italy) is a modification of that described by Gilfoil et al, J. Pharmacol. 142, 1 (1963). The instrument is basically a device which exerts a force that increases at a constant rate. The force is continuously monitored by a pointer moving along a linear scale and is measured in grams. The inflammatory reaction is induced in the left hind paw of rats of injecting 0.1 mL of Freund's adjuvant intradermally. The test compound or vehicle is administered 24 hours after the adjuvant. The pain threshold (vocalization) is determined 1 hour later in the inflamed paw of the treated and control groups.\nPresentation of Results and Criteria for Activity:\nEach animal which has a reading 1.5 times greater than the mean reading of the control-group will be considered as responsive (having an analgesic effect) to treatment. The number of animals showing an analgesic effect is then determined in each group.\nThe ED50 (dose which causes analgesia in 50% of the animals) using at least 3 doses is then determined, by the method described in Litchfield and Wilcoxon, J. Pharmacol. Exp. Ther., 96, 99-113 (1949)."}, "[4]": {"test": "Drug Effects on Phenylbenzoquinone-induced Writhing in Mice", "assay_type": "in vivo, Male Swiss albino mice", "details": "Mus musculus, po, Tested at 10 mg/kg, p.o., read-out: Phenylquinone Writhing in Mice, percent inhibition"}}}
{"smiles": "CCc1cccc2c3c([nH]c12)C(CC)(CC(=O)O)OCC3Cc1ccccc1", "note": "(single isomer, unassigned) [Example 4, 1,8-Diethyl-1,3,4,9-tetrahydro-4-(phenylmethyl)-pyrano[3,4-b]indole-1-acetic Acid]", "values": [{"measurement": "Preventative Adjuvant Edema, percent inhibition", "setting": "[1]", "result": 15, "unit": "%"}, {"measurement": "inhibition in vivo at 25 mg/kg", "setting": "[2]; 25 mg/kg, p.o., read-out: Phenylquinone Writhing in Mice, percent inhibition", "result": 86, "unit": "%"}, {"measurement": "ED50", "setting": "[3]", "result": 0.5, "unit": "mg/kg"}]}
{"smiles": "C=CCC1COC(CC)(CC(=O)O)c2[nH]c3c(CC)c(F)ccc3c21", "note": "(single isomer, unassigned) [Example 10]", "values": [{"measurement": "ED50", "setting": "[1]", "result": 7.8, "unit": "mg/kg"}, {"measurement": "ED50", "setting": "[2]", "result": 7, "unit": "mg/kg"}, {"measurement": "Randall Selitto Test in the Rat, percent inhibition", "setting": "[3]; Tested at 5 mg/kg, p.o.", "result": 60, "unit": "%"}]}
{"smiles": "C=CCC1COC(CC)(CC(=O)O)c2[nH]c3c(CCC)cccc3c21", "note": "(single isomer, unassigned) [Example 12, 1-ethyl-1,3,4,9-tetrahydro-4-(2-propenyl)-8-propyl-pyrano[3,4-b]indole-1-acetic acid]", "values": [{"measurement": "inhibition in vivo", "setting": "[1]", "result": 32, "unit": "%"}, {"measurement": "ED50", "setting": "[2]", "result": 9.5, "unit": "mg/kg"}, {"measurement": "ED50", "setting": "[3]", "result": 1, "unit": "mg/kg"}]}
{"smiles": "C=CCC1COC(CC)(CC(=O)O)c2[nH]c3c(C)c(Cl)ccc3c21", "note": "(single isomer, unassigned) [Example 16, 7-chloro-1-ethyl-1,3,4,9-tetrahydro-8-methyl-4-(2-propenyl)-pyrano[3,4-b]indole-1-acetic acid]", "values": [{"measurement": "ED50", "setting": "[1]", "result": 3, "unit": "mg/kg"}, {"measurement": "ED50", "setting": "[2]", "result": 5.5, "unit": "mg/kg"}, {"measurement": "ED50", "setting": "[3]", "result": 0.012, "unit": "mg/kg"}]}
{"smiles": "CCC1(CC(=O)O)OCC(Cc2ccccc2)c2c1[nH]c1c(Cl)c(Cl)ccc21", "note": "(single isomer, unassigned) [Example 18, 7,8-dichloro-1-ethyl-1,3,4,9-tetrahydro-4-(phenylmethyl)-pyrano[3,4-b]indole-1-acetic acid]", "values": [{"measurement": "inhibition in vivo at 25 mg/kg", "setting": "[1]", "result": 15, "unit": "%"}, {"measurement": "ED50", "setting": "[2]", "result": 3.2, "unit": "mg/kg"}, {"measurement": "ED50", "setting": "[3]", "result": 0.8, "unit": "mg/kg"}]}
{"smiles": "CCC1(CC(=O)O)OCC(Cc2ccccc2)c2c1[nH]c1c(C)c(Cl)ccc21", "note": "(single isomer, unassigned) [Example 19, 7-chloro-1-ethyl-1,3,4,9-tetrahydro-8-methyl-4-(phenylmethyl)-pyrano[3,4-b]indole-1-acetic acid]", "values": [{"measurement": "inhibition in vivo at 25 mg/kg", "setting": "[1]", "result": 52, "unit": "%"}, {"measurement": "ED50", "setting": "[2]", "result": 3.3, "unit": "mg/kg"}, {"measurement": "ED50", "setting": "[3]", "result": 1.6, "unit": "mg/kg"}]}
{"smiles": "CCC1(CC(=O)O)OCC(Cc2ccccc2)c2c1[nH]c1c(C)cccc21", "note": "(single isomer, unassigned) [Example 22, 1-ethyl-1,3,4,9-tetrahydro-8-methyl-4-(phenylmethyl)-pyrano[3,4-b]indole-1-acetic acid]", "values": [{"measurement": "Preventative Adjuvant Edema, percent inhibition", "setting": "[1]", "result": 47, "unit": "%"}, {"measurement": "ED50", "setting": "[2]", "result": 4.7, "unit": "mg/kg"}, {"measurement": "ED50", "setting": "[3]", "result": 0.25, "unit": "mg/kg"}]}
{"smiles": "CCC1(CC(=O)O)OCC(Cc2ccc(Cl)cc2)c2c1[nH]c1ccccc21", "note": "(single isomer, unassigned) [Example 42]", "values": [{"measurement": "inhibition in vivo", "setting": "[1]", "result": 18, "unit": "%"}, {"measurement": "inhibition in vivo at 10 mg/kg", "setting": "[4]", "result": 24, "unit": "%"}]}
{"smiles": "CCC1(CC(=O)O)OCC(Cc2ccc(F)cc2)c2c1[nH]c1ccccc21", "note": "(single isomer, unassigned) [Example 43]", "values": [{"measurement": "inhibition in vivo", "setting": "[1]", "result": 25, "unit": "%"}, {"measurement": "inhibition in vivo at 10 mg/kg", "setting": "[4]", "result": 47, "unit": "%"}]}
{"smiles": "CCC1(CC(=O)O)OCC(Cc2cccc(C(F)(F)F)c2)c2c1[nH]c1ccccc21", "note": "(single isomer, unassigned) [Example 44]", "values": [{"measurement": "inhibition in vivo", "setting": "[1]", "result": 25, "unit": "%"}, {"measurement": "inhibition in vivo at 10 mg/kg", "setting": "[4]", "result": 22, "unit": "%"}]}
{"smiles": "CCC1(CC(=O)O)OCC(Cc2ccc(F)cc2F)c2c1[nH]c1ccccc21", "note": "(single isomer, unassigned) [Example 45]", "values": [{"measurement": "inhibition in vivo", "setting": "[1]", "result": 45, "unit": "%"}, {"measurement": "inhibition in vivo at 10 mg/kg", "setting": "[4]", "result": 29, "unit": "%"}]}
{"smiles": "CCC1(CC(=O)O)OCC(Cc2ccccc2)c2c1[nH]c1ccccc21", "note": "(single isomer, unassigned; isomer a) [Example 1, 1-Ethyl-1,3,4,9-tetrahydro-4-(phenylmethyl)-pyrano[3,4-b]indole-1-acetic Acid (Isomer A)]", "values": [{"measurement": "inhibition in vivo at 25 mg/kg", "setting": "[1]", "result": 37, "unit": "%"}, {"measurement": "ED50", "setting": "[2]", "result": 1.9, "unit": "mg/kg"}, {"measurement": "ED50", "setting": "[3]", "result": 0.003, "unit": "mg/kg"}]}
